Assay results published in patent US20260226071A1, “2, 4-DIANILINOPYRIMIDINE-BASED AURORA-A KINASE SELECTIVE DEGRADATION INDUCING COMPOUNDS” (UPPTHERA, INC., priority 2023, published 2026).

Target: T1, Aurora kinase A (AURKA) (Homo sapiens, UniProt O14965)
T1 construct: endogenous in cells; host or cells: HeLa LgBit (AURKA-HiBit KI), CRISPR/Cas9 knock-in at the endogenous AURKA locus
T1 sequence (O14965 1-403): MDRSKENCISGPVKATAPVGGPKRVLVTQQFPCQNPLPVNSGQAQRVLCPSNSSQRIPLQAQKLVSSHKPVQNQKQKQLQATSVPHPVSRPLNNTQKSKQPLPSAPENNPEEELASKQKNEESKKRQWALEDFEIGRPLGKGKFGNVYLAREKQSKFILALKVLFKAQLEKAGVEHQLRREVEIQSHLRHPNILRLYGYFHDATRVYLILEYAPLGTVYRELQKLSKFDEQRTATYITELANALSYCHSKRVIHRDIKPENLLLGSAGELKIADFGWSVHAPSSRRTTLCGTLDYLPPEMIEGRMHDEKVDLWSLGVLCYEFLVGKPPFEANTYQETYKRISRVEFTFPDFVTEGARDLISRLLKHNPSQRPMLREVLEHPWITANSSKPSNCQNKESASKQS
Experiment: Luciferase assay for AURKA in HeLa LgBit (AURKA-HiBit KI) cell line
Assay type: cell-based
Conditions: HeLa LgBit (AURKA-HiBit KI) cells, measured after 12 hours
Source text: HeLa cell lines that stably express LgBit were constructed via LgBit vector transfection. Then, donor DNA and guide RNA for insertion of HiBit amino acid sequence at C-terminus of inherent Aurora kinase A (AURKA) genes were designed and constructed. Thereafter, they were transfected into the cell lines with CRISPR/Cas9 expression vector system. HiBit gene knock-in single cells were selected, passaged and used for the experiments.
For cell culture, DMEM (Gibco, Cat. No. 11995-065; Lot. No. 2562497), FBS (Gibco, Cat. No. 16000-044; Lot. No. 2511328P), Penicillin/Streptomycin (PS) (Gibco, Cat. No. 15140-122; Lot. No. 2585636), 90 mm^2 cell culture dish (SPL, Cat. No. 20100), 96-well white plate, PBS pH 7.4 (Gibco, […]), TrypLE™ Express (Gibco, Cat. No. 12605-010; Lot. No. 2522525), counting chamber (hematocytometer) (Hirschmann, Cat. No. 8100204; Lot. No. 8021087) and 0.4% Trypan Blue solution (DYNEBIO, Cat. No. CBT3710; Lot. No. 20231017) were used. Cells were cultured in DMEM supplemented with 10% FBS and 1% PS and incubated in CO2 incubator (Thermo, Cat. No. 4111) at 37° C., 5% CO2 condition.
HeLa LgBit (AURKA-HiBit KI) cell lines were cultured in 90 mm^2 cell culture dish, and 3×10^4 cells in […] of total medium volume were seeded and incubated for 18 hours in CO2 incubator. Then, Eudurazine (Promega, Cat. No. N247B; Lot. No. 495218) was added to each well to make up 1% of the total volume, followed by further incubation for 2 hours in CO2 incubator.
The present compounds were fully dissolved in DMSO (Sigma-Aldrich Cat. No. D2438, Lot. No. RNBL7287) and 10 nM or 100 nM of total concentration were used in the experiment. After adding the compounds in each well of 96-well white plate, the plate was placed in the plate reader (BMG Labtech, CLARIOstar Plus) for real-time analysis. The wavelength for analysis was set to […], and the luminescence value was measured after 12 hours. The luminescence value was analyzed through an Excel program.

| Structure (SMILES) | luminescence value (Level) (10 nM compound) | luminescence value (Level) (100 nM compound) |
| --- | --- | --- |
| O=C1CCC(c2cccc(N3CCC(CN4CCN(C(=O)Cc5ccc(Nc6ncc(F)c(Nc7ccc(C(=O)Nc8ccccc8Cl)cc7)n6)cc5)CC4)CC3)c2)C(=O)N1 (centres unmarked) [Compound 2, N-(2-chlorophenyl)-4-((2-((4-(2-(4-((1-(3-(2,6-dioxopiperidin-3-yl)phenyl)piperidin-4-yl)methyl)piperazin-1-yl)-2-oxoethyl)phenyl)amino)-5-fluoropyrimidin-4-yl)amino)benzamide] | C (C is 0.5 to 0.7) | B (B is 0.2 to 0.4) |
| CN(CC1CCN(c2ccc(C3CCC(=O)NC3=O)cc2)CC1)[C@@H]1CCC[C@@H]1NC(=O)c1ccc(Nc2ncc(F)c(Nc3ccc(C(=O)Nc4ccccc4Cl)cc3)n2)cc1 (stereo partly drawn) [Compound 10, N-(2-chlorophenyl)-4-((2-((4-(((1S,2R)-2-(((1-(4-(2,6-dioxopiperidin-3-yl)phenyl)piperidin-4-yl)methyl)(methyl)amino)cyclopentyl)carbamoyl)phenyl)amino)-5-fluoropyrimidin-4-yl)amino)benzamide] | D (D is 0.7 to 0.8) | C (C is 0.4 to 0.6) |
| CN(CC1CCN(c2ccc(C3CCC(=O)NC3=O)cc2)CC1)C1CC(NC(=O)c2ccc(Nc3ncc(F)c(Nc4ccc(C(=O)Nc5ccccc5Cl)cc4)n3)cc2)C1 (centres unmarked) [Compound 11, N-(2-chlorophenyl)-4-((2-((4-((3-(((1-(4-(2,6-dioxopiperidin-3-yl)phenyl)piperidin-4-yl)methyl)(methyl)amino)cyclobutyl)carbamoyl)phenyl)amino)-5-fluoropyrimidin-4-yl)amino)benzamide] | D (D is 0.7 to 0.8) | B (B is 0.2 to 0.4) |
| O=C1CCC(c2ccc(C#CC3CCN(C4CCN(C(=O)c5ccc(Nc6ncc(F)c(Nc7ccc(C(=O)Nc8ccccc8Cl)cc7)n6)cc5)CC4)CC3)cc2)C(=O)N1 (centres unmarked) [Compound 14, N-(2-chlorophenyl)-4-((2-((4-(4-((4-(2,6-dioxopiperidin-3-yl)phenyl)ethynyl)-[1,4′-bipiperidine]-1′-carbonyl)phenyl)amino)-5-fluoropyrimidin-4-yl)amino)benzamide] | D (D is 0.7 to 0.8) | C (C is 0.4 to 0.6) |
| O=C1CCC(c2ccc(C#CC3CCN(C4CCN(C(=O)Cc5ccc(Nc6ncc(F)c(Nc7ccc(C(=O)Nc8ccccc8Cl)cc7)n6)cc5)CC4)CC3)cc2)C(=O)N1 (centres unmarked) [Compound 15, N-(2-chlorophenyl)-4-((2-((4-(2-(4-((4-(2,6-dioxopiperidin-3-yl)phenyl)ethynyl)-[1,4′-bipiperidin]-1′-yl)-2-oxoethyl)phenyl)amino)-5-fluoropyrimidin-4-yl)amino)benzamide] | D (D is 0.7 to 0.8) | B (B is 0.2 to 0.4) |
| O=C1CCC(c2ccc(N3CCC(CCN4CCC(NC(=O)c5ccc(Nc6ncc(F)c(Nc7ccc(C(=O)Nc8ccccc8Cl)cc7)n6)cc5)CC4)CC3)cc2)C(=O)N1 (centres unmarked) [Compound 19, N-(2-chlorophenyl)-4-((2-((4-((1-(2-(1-(4-(2,6-dioxopiperidin-3-yl)phenyl)piperidin-4-yl)ethyl)piperidin-4-yl)carbamoyl)phenyl)amino)-5-fluoropyrimidin-4-yl)amino) benzamide] | C (C is 0.5 to 0.7) | B (B is 0.2 to 0.4) |
| O=C1CCC(c2ccc(C#CC3CCN(C4CCN(C(=O)c5ccc(Nc6ncc(F)c(Nc7ccc(C(=O)Nc8ccccc8Cl)cc7)n6)cc5)CC4)CC3)cn2)C(=O)N1 (centres unmarked) [Compound 20, N-(2-chlorophenyl)-4-((2-((4-(4-((6-(2,6-dioxopiperidin-3-yl)pyridin-3-yl)ethynyl)-[1,4′-bipiperidine]-1′-carbonyl)phenyl)amino)-5-fluoropyrimidin-4-yl)amino)benzamide] | D (D is 0.7 to 0.8) | C (C is 0.4 to 0.6) |

Other lines, results leading:

| luminescence value (Level) (10 nM compound) | luminescence value (Level) (100 nM compound) | Structure (SMILES) |
| --- | --- | --- |
| C (C is 0.5 to 0.7) | B (B is 0.2 to 0.4) | O=C1CCC(Nc2cccc(N3CCC(CN4CCN(C(=O)Cc5ccc(Nc6ncc(F)c(Nc7ccc(C(=O)Nc8ccccc8Cl)cc7)n6)cc5)CC4)CC3)c2)C(=O)N1 (centres unmarked) [Compound 25, N-(2-chlorophenyl)-4-((2-((4-(2-(4-((1-(3-((2,6-dioxopiperidin-3-yl)amino)phenyl)piperidin-4-yl)methyl)piperazin-1-yl)-2-oxoethyl)phenyl)amino)-5-fluoropyrimidin-4-yl)amino)benzamide] |
| B (B is 0.3 to 0.5) | B (B is 0.2 to 0.4) | O=C1CCC(Nc2ccc(N3C[C@@H]4[C@@H](CN5CCC(NC(=O)c6ccc(Nc7ncc(F)c(Nc8ccc(C(=O)Nc9ccccc9Cl)cc8)n7)cc6)CC5)[C@@H]4C3)cc2)C(=O)N1 (stereo partly drawn) [Compound 27, N-(2-chlorophenyl)-4-((2-((4-((1-(((1R,5S,6s)-3-(4-((2,6-dioxopiperidin-3-yl)amino)phenyl)-3-azabicyclo[3.1.0]hexan-6-yl)methyl)piperidin-4-yl)carbamoyl)phenyl)amino)-5-fluoropyrimidin-4-yl)amino)benzamide] |
| C (C is 0.5 to 0.7) | B (B is 0.2 to 0.4) | O=C1CCC(Nc2ccc(N3CC4CC(C3)N(C3CCN(C(=O)c5ccc(Nc6ncc(F)c(Nc7ccc(C(=O)Nc8ccccc8Cl)cc7)n6)cc5)CC3)C4)cc2)C(=O)N1 (centres unmarked) [Compound 28, N-(2-chlorophenyl)-4-((2-((4-(4-(3-(4-((2,6-dioxopiperidin-3-yl)amino)phenyl)-3,6-diazabicyclo[3.2.1]octan-6-yl)piperidine-1-carbonyl)phenyl)amino)-5-fluoropyrimidin-4-yl)amino)benzamide] |
| C (C is 0.5 to 0.7) | B (B is 0.2 to 0.4) | O=C1CCC(Nc2ccc(N3CC4CC(C3)N(CC3CCN(C(=O)c5ccc(Nc6ncc(F)c(Nc7ccc(C(=O)Nc8ccccc8Cl)cc7)n6)cc5)CC3)C4)cc2)C(=O)N1 (centres unmarked) [Compound 29, N-(2-chlorophenyl)-4-((2-((4-(4-((3-(4-((2,6-dioxopiperidin-3-yl)amino)phenyl)-3,6-diazabicyclo[3.2.1]octan-6-yl)methyl)piperidine-1-carbonyl)phenyl)amino)-5-fluoropyrimidin-4-yl)amino)benzamide] |
| C (C is 0.5 to 0.7) | B (B is 0.2 to 0.4) | O=C1CCC(Nc2ccc(N3CCC(CN4CC5(C4)CN(C(=O)c4ccc(Nc6ncc(F)c(Nc7ccc(C(=O)Nc8ccccc8Cl)cc7)n6)cc4)C5)CC3)cc2)C(=O)N1 (centres unmarked) [Compound 31, N-(2-chlorophenyl)-4-((2-((4-(6-((1-(4-((2,6-dioxopiperidin-3-yl)amino)phenyl)piperidin-4-yl)methyl)-2,6-diazaspiro[3.3]heptane-2-carbonyl)phenyl)amino)-5-fluoropyrimidin-4-yl)amino)benzamide] |
| B (B is 0.3 to 0.5) | B (B is 0.2 to 0.4) | O=C1CCC(Nc2ccc(N3CCC(CN4CCC5(CCN(C(=O)c6ccc(Nc7ncc(F)c(Nc8ccc(C(=O)Nc9ccccc9Cl)cc8)n7)cc6)C5)C4)CC3)cc2)C(=O)N1 (centres unmarked) [Compound 32, N-(2-chlorophenyl)-4-((2-((4-(7-((1-(4-((2,6-dioxopiperidin-3-yl)amino)phenyl)piperidin-4-yl)methyl)-2,7-diazaspiro[4.4]nonane-2-carbonyl)phenyl)amino)-5-fluoropyrimidin-4-yl)amino)benzamide] |
